Literature values as cited in patent US20140080864A1, “PHARMACETUICAL COMPOSITION COMPRISING DROTAVERINE” (CHINOIN PRIVATE CO LTD, priority 2011, published 2014).
Counter-ions that a name gives are not always drawn.

Conditions: oral dose, healthy individuals; mean SD

absolute bioavailability (mean): 58.2%
SMILES: CCOc1ccc(/C=C2\NCCc3cc(OCC)c(OCC)cc32)cc1OCC [drotaverine hydrochloride, 1-(3,4-diethoxybenzylidene)-6,7-diethoxy-1,2,3,4-tetrahydroisoquinoine]
